{
  "source": "patent US20050019357A1",
  "about": "“(2S,3R,4S)-4-hydroxyisoleucine-containing cosmetic compositions and methods of application” (Caster, priority 2003, published 2005)",
  "key": {"TNS & CRAB-2 receptors": {"tested_on": "TNS & CRAB-2 receptors", "test": "cDNA-macroarrays confirmed by quantitative RT-PCR on messenger RNAs of epidermal cells: TNS & CRAB-2 receptor expression", "assay_type": "cell-based"}, "[1]": {"tested_on": "men with alopecia (proportion of hair in the telogen phase greater than 15%)", "test": "Anti-hair loss study by videotrichogram on volunteers with alopecia", "assay_type": "in vivo, human", "conditions": "used as active ingredient in an anti-hair loss composition already containing Lentinus edodes extract, procyanidolic oligomers and Cananga odorata essential oil", "from_the_text": "The anti-ageing effect on the epidermis was confirmed in vivo in a study relating to the anti-hair loss properties of (2S,3R,4S)-4-hydroxyisoleucine carried out on volunteer subjects affected by alopecia, having a proportion of hair in the telogen phase greater than […] 15%. […] This anti-hair loss composition is described in application FR 2 776 184 of which the applicant is proprietor. It contains an aqueous extract of the mushroom Lentinus edodes rich in 1,3-β-D-1,6-β-D-glucan, procyanidolic oligomers extracted from grapeseed cuticle, and essential oil extracted from the flowers of Cananga odorata. […]\nThis study was carried out on a sample of 25 volunteers for each composition tested. The only people included in the study were men from 20 to 50 years old (average age of each group 37 years) with alopecia, that is to say having a proportion of hair in the telogen phase, determined by videotrichogram, greater than 15%.\nThe apparatus used is a videomicroscope equipped with a ×25 lens, which is mobile and optical fibre-based, linked to a computer system for image acquisition. The lens is placed directly over the zone to be studied, the image is digitized, recorded and analysed with the aid of a specific software (COUNTHAIR®) developed by the company DERMSCAN which makes it possible to count the hair strands and to measure their length. […]"}, "[2]": {"tested_on": "Cellular Retinoic Acid Binding Protein (CRAB-P-2)", "test": "cDNA-macroarrays confirmed by quantitative RT-PCR on messenger RNAs of epidermal cells: CRAB-P-2 expression", "assay_type": "cell-based"}, "[3]": {"tested_on": "Bullous Pemphigoid Antigen 1 (BPAG-1)", "test": "cDNA-macroarrays confirmed by quantitative RT-PCR on messenger RNAs of epidermal cells: BPAG-1 expression", "assay_type": "cell-based"}, "JL1-R1 receptor": {"tested_on": "JL1-R1 receptor", "test": "cDNA-macroarrays confirmed by quantitative RT-PCR on messenger RNAs of epidermal cells: JL1-R1 receptor expression", "assay_type": "cell-based"}},
  "data": [
    {"compound": "C[C@@H]([C@H](C)O)[C@H](N)C(=O)O", "note": "[(2S,3R,4S)-4-hydroxyisoleucine]", "values": [
      {"measurement": "expression of the TNS & CRAB-2 receptors", "setting": "TNS & CRAB-2 receptors", "value": "decrease in the expression"},
      {"measurement": "anti-hair loss properties", "setting": "[1]", "value": "particularly effective"},
      {"measurement": "expression of Cellular Retinoic Acid Binding Protein (CRAB-P-2)", "setting": "[2]", "value": "significant underexpression"},
      {"measurement": "expression of Bullous Pemphigoid Antigen 1 (BPAG-1)", "setting": "[3]", "value": "significant overexpression"},
      {"measurement": "expression of the JL1-R1 receptor", "setting": "JL1-R1 receptor", "value": "significant overexpression"}
    ]}
  ]
}
